What all share (format): binding
Test [1] concerns the target X(3,4)IRBP (Xen IRBP modules 3&4) (Xenopus laevis, UniProt Q7SZI7). In words: Fluorometric titration, retinol fluorescence enhancement, double module. As to conditions: ex 330 nm, em 480 nm, protein 0.57 μM. From the text:
(§1) Why do the number of sites from individual modules add up to more than that detected in the full-length IRBP? Here we asked whether the number of sites within individual modules could at least predict the number in recombinant proteins consisting of two modules. We had originally anticipated that the sum of sites from individual modules would give the number in such "module pairs". However, this turned out to be not always true. We expressed and purified module combinations 1&2 and 3&4, termed X(1,2)IRBP and X(3,4)IRBP respectively. Binding of all-trans retinol to these module pairs was characterized by fluorometric titrations monitoring retinol-fluorescence enhancement (Figure 10). For X(1,2)IRBP, N = 2.45 ± 0.11 (2.40 sites were predicted from the sum of individual modules 1 plus 2). In contrast, N for X(3,4)IRBP was 1.43 ± 0.21 sites (predicted, 3.83 sites). […] That is, some sites may not be solvent exposed in the intact IRBP as they are within individual modules. […] Therefore it is plausible that some binding sites that are solvent exposed in the individual module are buried in the intact […]. To address this question, ongoing studies in our laboratories are aimed at determining the X-ray crystal structure of IRBPs composed of multiple modules.
(§2) Figure 10 Retinol binding to Xenopus IRBPs consisting of two contiguous modules. Binding of double modules IRBPs with all-trans retinol as followed during titrations by monitoring the increase in retinol fluorescence (excitation, 330 nm; emission, 480 nm). The concentration of the IRBP double module was: modules 1&2, 0.67 μM; modules 3&4, 0.57 μM.
(§3) Enhancement of retinol fluorescence and quenching of the intrinsic protein fluorescence were used to monitor binding of all-trans retinol to the recombinant IRBPs. We previously derived an equation that is generally useful for describing such quantum yield changes that are consequent upon ligand binding. This equation has been previously applied to the analysis of binding by monitoring the enhancement of retinol fluorescence. In this case, where excitation is at 330 nm and emission is monitored at 480, the fluorescence enhancement (Fenh) depends on the total retinol concentration (Rt), the dissociation constant (Kd ^all-trans), the number of retinol-binding sites per protein molecule (N) and the total protein concentration (Pt).
(§4) Assuming that there is a single type of noninteracting site on the protein, (Fenh) is expected to be linearly related to the concentration of bound retinol molecules. […]
(§5) The equation was fit to the data by nonlinear least-squares analysis. To follow the quenching of the protein's intrinsic fluorescence the excitation and emission wavelengths were set to 280 nm and 340 nm, respectively, while the protein was titrated with all-trans retinol. […]

Test [2] concerns the target X(1,2)IRBP (Xen IRBP modules 1&2) (Xenopus laevis, UniProt Q7SZI7). The description is as above. The settings on record: ex 330 nm, em 480 nm, protein 0.67 μM.
From the text: as §1, §2, §3, §4, §5

In a further test the target is T1, Xenopus IRBP Module 3 (Xenopus laevis, UniProt Q7SZI7).
T1 construct: cDNAs corresponding to the full-length IRBP, module 1, and module 2 were expressed in pThioHis; modules 3 and 4 were expressed in pTrxFus; made in house; host or cells: E. coli GI724 / GI698 (pTrxFus)
In words: Fluorometric titration (enhancement, quenching).
From the text: as §3
(§6) Assuming that there is a single type of noninteracting site on the protein, (Fenh) is expected to be linearly related to the concentration of bound retinol molecules. Fenh is given by the relation
(§7) Fenh=C1+C2[Rtall−trans−(Rtall−trans+NPt+Kdall−trans)^2−4NPtRtall−trans] MathType@MTEF@5@5@+=feaafiart1ev1aaatCvAUfKttLearuWrP9MDH5MBPbIqV92AaeXatLxBI9gBaebbnrfifHhDYfgasaacH8akY=wiFfYdH8Gipec8Eeeu0xXdbba9frFj0=OqFfea0dXdd9vqai=hGuQ8kuc9pgc9s8qqaq=dirpe0xb9q8qiLsFr0=vr0=vr0dc8meaabaqaciaacaGaaeqabaqabeGadaaakeaacqWGgbGrdaWgaaWcbaGaemyzauMaemOBa4MaemiAaGgabeaakiabg2da9iabdoeadnaaBaaaleaacqaIXaqmaeqaaOGaey4kaSIaem4qam0aaSbaaSqaaiabikdaYaqabaGcdaWadaqaaiabdkfasnaaDaaaleaacqWG0baDaeaacqWGHbqycqWGSbaBcqWGSbaBcqGHsislcqWG0baDcqWGYbGCcqWGHbqycqWGUbGBcqWGZbWCaaGccqGHsisldaGcaaqaamaabmaabaGaemOuai1aa0baaSqaaiabdsha0bqaaiabdggaHjabdYgaSjabdYgaSjabgkHiTiabdsha0jabdkhaYjabdggaHjabd6gaUjabdohaZbaakiabgUcaRiabd6eaojabdcfaqnaaBaaaleaacqWG0baDaeqaaOGaey4kaSIaem4saS0aa0baaSqaaiabdsgaKbqaaiabdggaHjabdYgaSjabdYgaSjabgkHiTiabdsha0jabdkhaYjabdggaHjabd6gaUjabdohaZbaaaOGaayjkaiaawMcaamaaCaaaleqabaGaeGOmaidaaOGaeyOeI0IaeGinaqJaemOta4Kaemiuaa1aaSbaaSqaaiabdsha0bqabaGccqWGsbGudaqhaaWcbaGaemiDaqhabaGaemyyaeMaemiBaWMaemiBaWMaeyOeI0IaemiDaqNaemOCaiNaemyyaeMaemOBa4Maem4CamhaaaqabaaakiaawUfacaGLDbaaaaa@8490@
(§8) The equation was fit to the data by nonlinear least-squares analysis. To follow the quenching of the protein's intrinsic fluorescence the excitation and emission wavelengths were set to 280 nm and 340 nm, respectively, while the protein was titrated with all-trans retinol. For the quenching studies the inner filter effect was accounted for by graphical correction as previously described. Fluorescence measurements were made using an SLM 8000TM C photon counting spectrofluorometer corrected for wavelength dependence of source energy and detector response.

For the next test, the target named is T2, Xenopus IRBP Module 4 (Xenopus laevis, UniProt Q7SZI7).
T2 construct: cDNAs corresponding to the full-length IRBP, module 1, and module 2 were expressed in pThioHis; modules 3 and 4 were expressed in pTrxFus; made in house; host or cells: E. coli GI724 / GI698 (pTrxFus)
In words: Fluorometric titration (enhancement, quenching).
From the text: as §3, §6, §7, §8

A further test addresses Xenopus IRBP Module 1 (Xenopus laevis, UniProt Q7SZI7). In words: Fluorometric titration (enhancement, quenching). Further details: cDNAs corresponding to the full-length IRBP, module 1, and module 2 were expressed in pThioHis; modules 3 and 4 were expressed in pTrxFus; made in house; host or cells: E. coli Top10 (pThioHis).
From the text: as §3, §6, §7, §8

Setting [3] is: all-trans retinol fluorescence enhancement, ex 330 nm, em 480 nm.
[4] abbreviates: all-trans retinol fluorescence enhancement, ex 330 nm, em 480 nm, read-out: Kd, Enhancement.
Where [5] appears, read: quenching by all-trans retinol, ex 280 nm, em 340 nm, read-out: Kd, Quenching.

Like-named read-outs stand apart in the source and are kept apart here.

T1 sequence (Q7SZI7 616-922): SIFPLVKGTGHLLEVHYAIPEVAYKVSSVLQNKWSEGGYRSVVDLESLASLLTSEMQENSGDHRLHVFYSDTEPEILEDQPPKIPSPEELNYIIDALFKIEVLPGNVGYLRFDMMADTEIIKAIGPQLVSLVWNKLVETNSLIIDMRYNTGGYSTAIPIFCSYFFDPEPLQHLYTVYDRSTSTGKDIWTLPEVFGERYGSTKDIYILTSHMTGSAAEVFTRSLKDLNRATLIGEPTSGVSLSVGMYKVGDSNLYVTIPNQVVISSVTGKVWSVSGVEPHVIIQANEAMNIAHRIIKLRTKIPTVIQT
T2 sequence (Q7SZI7 923-1219): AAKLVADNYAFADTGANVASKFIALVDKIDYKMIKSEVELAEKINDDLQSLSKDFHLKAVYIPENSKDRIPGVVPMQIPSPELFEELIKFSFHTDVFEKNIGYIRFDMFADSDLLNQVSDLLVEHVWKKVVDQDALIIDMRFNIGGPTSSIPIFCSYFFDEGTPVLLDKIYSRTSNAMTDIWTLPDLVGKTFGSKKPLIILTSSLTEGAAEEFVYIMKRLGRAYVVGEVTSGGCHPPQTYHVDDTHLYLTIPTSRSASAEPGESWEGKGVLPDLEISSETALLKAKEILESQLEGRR
Sequence of Xenopus IRBP Module 1 (Q7SZI7 23-315): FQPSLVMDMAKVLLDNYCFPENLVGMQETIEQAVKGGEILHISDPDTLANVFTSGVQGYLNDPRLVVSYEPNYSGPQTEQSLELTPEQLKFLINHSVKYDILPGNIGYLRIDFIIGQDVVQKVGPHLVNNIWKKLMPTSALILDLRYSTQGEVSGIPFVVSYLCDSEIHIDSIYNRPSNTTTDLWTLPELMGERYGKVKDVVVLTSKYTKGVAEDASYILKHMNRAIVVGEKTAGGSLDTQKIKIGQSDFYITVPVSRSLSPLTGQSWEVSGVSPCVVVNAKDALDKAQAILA
Sequence of X(3,4)IRBP (Xen IRBP modules 3&4) (Q7SZI7 618-1219): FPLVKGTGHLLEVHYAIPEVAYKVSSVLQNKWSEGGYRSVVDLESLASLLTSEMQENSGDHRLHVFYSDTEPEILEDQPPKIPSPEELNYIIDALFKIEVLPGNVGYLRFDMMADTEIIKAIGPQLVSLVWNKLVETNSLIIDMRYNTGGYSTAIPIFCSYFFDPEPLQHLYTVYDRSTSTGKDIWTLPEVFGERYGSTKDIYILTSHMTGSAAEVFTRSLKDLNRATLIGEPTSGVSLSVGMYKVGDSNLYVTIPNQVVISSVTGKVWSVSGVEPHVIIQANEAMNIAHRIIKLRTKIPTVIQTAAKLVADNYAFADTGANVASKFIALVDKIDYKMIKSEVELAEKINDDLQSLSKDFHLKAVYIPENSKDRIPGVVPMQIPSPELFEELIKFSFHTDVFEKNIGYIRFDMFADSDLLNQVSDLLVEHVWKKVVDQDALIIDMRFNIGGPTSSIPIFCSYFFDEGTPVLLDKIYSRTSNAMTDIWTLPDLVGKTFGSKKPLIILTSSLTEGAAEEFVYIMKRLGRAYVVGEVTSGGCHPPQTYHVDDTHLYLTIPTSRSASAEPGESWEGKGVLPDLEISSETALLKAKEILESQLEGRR
Sequence of X(1,2)IRBP (Xen IRBP modules 1&2) (Q7SZI7 23-617): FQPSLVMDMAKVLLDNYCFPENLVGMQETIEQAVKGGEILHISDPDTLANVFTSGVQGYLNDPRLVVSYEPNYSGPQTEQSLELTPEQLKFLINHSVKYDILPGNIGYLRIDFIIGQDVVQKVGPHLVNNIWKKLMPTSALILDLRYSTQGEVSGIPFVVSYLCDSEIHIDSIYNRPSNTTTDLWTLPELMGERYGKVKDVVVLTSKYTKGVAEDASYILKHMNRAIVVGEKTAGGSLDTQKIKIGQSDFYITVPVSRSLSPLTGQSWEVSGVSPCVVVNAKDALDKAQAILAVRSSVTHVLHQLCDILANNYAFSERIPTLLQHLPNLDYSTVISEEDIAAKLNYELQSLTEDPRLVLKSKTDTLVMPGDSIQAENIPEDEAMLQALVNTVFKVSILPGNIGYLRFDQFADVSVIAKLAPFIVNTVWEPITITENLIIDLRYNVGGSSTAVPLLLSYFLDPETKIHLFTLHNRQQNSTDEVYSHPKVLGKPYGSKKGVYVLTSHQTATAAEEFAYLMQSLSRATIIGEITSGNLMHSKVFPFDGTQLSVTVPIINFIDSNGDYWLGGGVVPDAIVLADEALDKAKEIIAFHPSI

As for `CC1=C(/C=C/C(C)=C/C=C/C(C)=C/CO)C(C)(C)CCC1` [all-trans retinol], the entries for the “Binding sites (N)” value in test [1] and in test [2] were 1.43 ± 0.21 and 2.45 ± 0.11, respectively. Moreover, the dissociation constant (Kd) is 190 ± 50 nM in test [1]; 49 ± 23 nM in test [2]; 1180 ± 410 nM at Xenopus IRBP Module 3 (setting [4]); 310 ± 40 nM on Xenopus IRBP Module 3 (setting [5]); 1790 ± 540 nM on Xenopus IRBP Module 4 (all-trans retinol fluorescence enhancement, ex 330 nm, em 480 nm, absence of 11-cis retinaldehyde, read-out: Kd, Enhancement); 640 ± 50 nM at Xenopus IRBP Module 4 (setting [5]). Moreover, the Kd was found to be 440 ± 130 nM on Xenopus IRBP Module 1 (setting [4]) and 350 ± 80 nM on Xenopus IRBP Module 1 (setting [5]). Besides, the “Binding sites (N), Enhancement” value on Xenopus IRBP Module 3 (setting [3]) is reported as 1.83 ± 0.42; on Xenopus IRBP Module 4 (setting [3]) it was 2.06 ± 0.53; on Xenopus IRBP Module 1 (setting [3]), 0.83 ± 0.15.

For the origin of these results see publication PMC2000878, “Module structure of interphotoreceptor retinoid-binding protein (IRBP) may provide bases for its complex role in the visual cycle – structure/function study of Xenopus IRBP” (BMC Biochemistry, 2007).
